ChEMBL document CHEMBL1201862, “PubChem BioAssay data set” (2004)
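48-hour exposure; five concentrations; linearly interpolated endpoints. GI50 marks 50% less growth.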 Calls of active or inactive are those of the source. Rule as the data show it: active = GI50 up to about 1.1 µM and inactive = higher.

What was measured:
Assay in all cases: inhibition of tumour cell growth, NCI panel, 48 h
[1] = test system: A498
[2] = test system: COLO 205
[3] = test system: DU-145
[4] = test system: HCT-116
[5] = test system: HT-29
[6] = test system: Hs-578T
[7] = test system: IGROV-1
[8] = test system: MOLT-4
[9] = test system: NCI-H460
[10] = test system: NCI-H522
[11] = test system: OVCAR-5
[12] = test system: RXF 393
[13] = test system: SK-MEL-28
[14] = test system: SK-MEL-2
[15] = test system: TK-10
[16] = test system: U-251
[17] = test system: UACC-257
[18] = test system: UO-31
[19] = test system: SF-539
[20] = test system: SR

Measured: GI50

CCc1ccc(CCN2CCCCC2)nc1
inactive: [1] > 100 µM | [2] > 100 µM | [3] > 100 µM | [4] > 100 µM | [5] > 100 µM | [6] 56.9 µM | [7] 58.9 µM | [8] > 100 µM | [9] > 100 µM | [10] 52.1 µM | [11] > 100 µM | [12] > 100 µM | [13] > 100 µM | [14] > 100 µM | [15] > 100 µM | [16] > 100 µM | [17] > 100 µM | [18] > 100 µM

Cc1cnc2c(c1)C(=O)N(c1ccc(Br)cc1)S2(=O)=O
inactive: [2] > 100 µM | [3] > 100 µM | [4] > 100 µM | [5] > 100 µM | [6] 24.5 µM | [7] 56.1 µM | [8] > 100 µM | [9] > 100 µM | [10] 19.5 µM | [11] > 100 µM | [19] > 100 µM | [13] > 100 µM | [14] > 100 µM | [15] > 100 µM | [16] > 100 µM | [17] > 100 µM | [18] > 100 µM

CCOP(=O)(OCC)C(F)(F)c1ccc(CC(NC(=O)OC(C)(C)C)C(=O)O)cc1 (stereo not given)
inactive: [1] > 10 µM | [2] > 10 µM | [3] > 10 µM | [4] > 10 µM | [5] > 10 µM | [6] > 10 µM | [7] > 10 µM | [8] > 10 µM | [9] > 10 µM | [11] > 10 µM | [19] > 10 µM | [13] > 10 µM | [15] > 10 µM | [16] > 10 µM | [17] > 10 µM | [18] > 10 µM

CC(C)(C)OC(=O)NCCCCC(N)NC(=O)c1ccccc1 (stereo not given)
inactive: [1] > 100 µM | [2] > 100 µM | [3] > 100 µM | [4] > 100 µM | [5] > 100 µM | [6] > 100 µM | [7] > 100 µM | [8] > 100 µM | [9] > 100 µM | [10] > 100 µM | [11] > 100 µM | [12] > 100 µM | [19] > 100 µM | [13] > 100 µM | [14] > 100 µM | [15] > 100 µM | [16] > 100 µM | [17] > 100 µM | [18] > 100 µM

Cc1cc(C#N)c(Nc2ccccc2[N+](=O)[O-])s1
inactive: [1] 37.7 µM | [2] 29.6 µM | [3] 17.7 µM | [4] 23.8 µM | [7] 13.8 µM | [8] 55.7 µM | [9] 36.6 µM | [10] 19.8 µM | [11] 14.2 µM | [12] 3.96 µM | [19] 27.7 µM | [13] 45.2 µM | [20] 40.2 µM | [16] 20.3 µM | [17] 68.5 µM | [18] 39.7 µM

O=CN1CCN(C(=O)c2ccc(Cl)c(Cl)c2)C1=S
inactive: [1] 15.8 µM | [2] 20 µM | [3] 15.7 µM | [4] 16.3 µM | [5] 19.4 µM | [6] 39.5 µM | [7] 15.1 µM | [8] 22.8 µM | [9] 19.2 µM | [10] 4.93 µM | [11] 16.9 µM | [12] 17.5 µM | [19] 20.7 µM | [13] 18.2 µM | [14] 15.3 µM | [15] 16.5 µM | [16] 12.5 µM | [17] 17.7 µM

COC(=O)C1=COC(OC2OC(CO)C(O)C(O)C2O)C2C3CN4CCc5c([nH]c6ccccc56)C4(CC12)O3 (stereo not given)
inactive: [1] > 100 µM | [2] > 100 µM | [3] > 100 µM | [4] > 100 µM | [5] > 100 µM | [7] 46.5 µM | [8] > 100 µM | [9] > 100 µM | [11] > 100 µM | [12] > 100 µM | [19] > 100 µM | [13] > 100 µM | [14] > 100 µM | [20] > 100 µM | [15] > 100 µM | [16] > 100 µM | [17] > 100 µM | [18] > 100 µM

O=C1NC(=O)C(C(c2ccc([N+](=O)[O-])cc2)C2C(=O)NC(=O)NC2=O)C(=O)N1
inactive: [1] > 100 µM | [2] > 100 µM | [3] > 100 µM | [4] > 100 µM | [5] > 100 µM | [6] > 100 µM | [7] > 100 µM | [8] > 100 µM | [9] > 100 µM | [10] > 100 µM | [11] > 100 µM | [12] > 100 µM | [13] > 100 µM | [14] > 100 µM | [15] > 100 µM | [16] > 100 µM | [17] > 100 µM | [18] > 100 µM

CCSC1=N/C(=C\c2ccco2)C(NN)=N1
inactive: [1] > 50 µM | [2] > 50 µM | [3] > 50 µM | [4] > 50 µM | [5] > 50 µM | [6] > 50 µM | [7] > 50 µM | [8] > 50 µM | [9] > 50 µM | [10] > 50 µM | [11] > 50 µM | [12] > 50 µM | [19] > 50 µM | [13] > 50 µM | [14] > 50 µM | [15] > 50 µM | [16] > 50 µM | [17] > 50 µM | [18] > 50 µM

CC1=C(C)C(=O)C(C2=CC(=O)C=CC2=O)=C(C2=CC(=O)C=CC2=O)C1=O
inactive: [1] > 100 µM | [2] 56 µM | [3] > 100 µM | [4] 31.8 µM | [5] > 72.6 µM | [6] 45.4 µM | [7] 21.4 µM | [8] 15.5 µM | [9] > 100 µM | [10] 21.2 µM | [11] > 58.9 µM | [12] 41.9 µM | [19] 27.3 µM | [13] > 74 µM | [14] > 100 µM | [15] > 100 µM | [16] 32.7 µM | [17] > 67.1 µM | [18] 41.7 µM

Cc1cc2c(cc1C)[n+]([O-])c(NCCCN(C)C)c(C#N)[n+]2[O-]
inactive: [1] > 100 µM | [4] 73.3 µM | [5] 61.5 µM | [6] > 100 µM | [7] 35.5 µM | [8] 22.7 µM | [9] 26.2 µM | [10] 57.4 µM | [11] > 100 µM | [12] > 100 µM | [19] > 100 µM | [13] > 100 µM | [14] > 100 µM | [20] 13.2 µM | [15] > 100 µM | [16] > 100 µM | [17] > 100 µM | [18] > 100 µM

CN(C)/C=[N+]1/[C@@H](Cc2ccccc2)C(=O)O[B-]1(F)c1ccccc1 (stereo not given in full)
inactive: [1] > 100 µM | [2] > 100 µM | [3] > 100 µM | [4] > 100 µM | [5] > 100 µM | [7] > 100 µM | [8] > 100 µM | [9] > 100 µM | [11] > 100 µM | [13] > 100 µM | [20] > 100 µM | [15] > 100 µM | [16] > 100 µM | [17] > 100 µM | [18] > 100 µM

C/C=C/C=C\C1OC(O)([C@H](CC)C(=O)NC/C=C/C=C(\C)[C@H](OC)C(C)C2OC(\C=C/C=C/C=C(\C)C(=O)c3c(O)ccn(C)c3=O)[C@H](O)[C@@H]2O)C(O)C(O)C1(C)C (stereo not given in full)
inactive: [1] > 100 µM | [2] > 100 µM | [3] > 100 µM | [4] > 100 µM | [5] 55 µM | [6] > 100 µM | [7] 82 µM | [8] 41.9 µM | [9] > 100 µM | [10] > 100 µM | [11] > 100 µM | [12] > 100 µM | [19] > 100 µM | [13] > 100 µM | [14] > 100 µM | [15] > 100 µM | [16] > 100 µM | [17] > 100 µM | [18] > 100 µM

COC1=CC(=O)c2c(CCNC(=O)OCc3ccccc3)n[nH]c2C1=O
inactive: [1] 17.5 µM | [2] 18.8 µM | [4] 12.4 µM | [5] 22.8 µM | [6] 24.2 µM | [7] 15.4 µM | [8] 16.8 µM | [9] 15.3 µM | [10] 7.78 µM | [11] 18.1 µM | [19] 17.9 µM | [13] 12.1 µM | [14] 11 µM | [20] 19.1 µM | [15] 34 µM | [16] 13.2 µM | [17] 14.9 µM | [18] 14.6 µM

O=c1cccc2n1CC1CNC[C@H]2C1 [CYTISINICLINE]
inactive: [2] > 100 µM | [3] > 100 µM | [4] > 100 µM | [5] > 100 µM | [6] > 100 µM | [7] > 100 µM | [8] > 100 µM | [9] > 100 µM | [10] > 100 µM | [11] > 100 µM | [12] > 100 µM | [13] > 100 µM | [14] > 100 µM | [15] > 100 µM | [16] > 100 µM | [17] > 100 µM | [18] > 100 µM
